# Results published in ChEMBL document CHEMBL1938364, “Discovery of orally active pyrazoloquinolines as potent PDE10 inhibitors for the management of schizophrenia” (Bioorg Med Chem Lett, 2012).
# Active and inactive are the calls of the source. The calls are words filed in the database; no cut-off is given here.
# What was measured:
# Rattus norvegicus [1] = test: Antipsychotic activity in rat schizophrenia model assessed as inhibition of MK801-induced hyperactivity at 30 mg/kg, po; assay type: functional; parameters: scale not given: the % may be the effect or the level left
# [2] = molecular target: cGMP-specific 3',5'-cyclic phosphodiesterase (Homo sapiens, UniProt O76074); test: Displacement of [3H]cAMP from PDE5A1 by competitive binding assay
# [3] = molecular target: cAMP and cAMP-inhibited cGMP 3',5'-cyclic phosphodiesterase 10A (Homo sapiens, UniProt Q9Y233); test: Displacement of [3H]cAMP from human recombinant PDE10A1 by competitive binding assay
# Chain of cAMP and cAMP-inhibited cGMP 3',5'-cyclic phosphodiesterase 10A (Q9Y233 whole entry): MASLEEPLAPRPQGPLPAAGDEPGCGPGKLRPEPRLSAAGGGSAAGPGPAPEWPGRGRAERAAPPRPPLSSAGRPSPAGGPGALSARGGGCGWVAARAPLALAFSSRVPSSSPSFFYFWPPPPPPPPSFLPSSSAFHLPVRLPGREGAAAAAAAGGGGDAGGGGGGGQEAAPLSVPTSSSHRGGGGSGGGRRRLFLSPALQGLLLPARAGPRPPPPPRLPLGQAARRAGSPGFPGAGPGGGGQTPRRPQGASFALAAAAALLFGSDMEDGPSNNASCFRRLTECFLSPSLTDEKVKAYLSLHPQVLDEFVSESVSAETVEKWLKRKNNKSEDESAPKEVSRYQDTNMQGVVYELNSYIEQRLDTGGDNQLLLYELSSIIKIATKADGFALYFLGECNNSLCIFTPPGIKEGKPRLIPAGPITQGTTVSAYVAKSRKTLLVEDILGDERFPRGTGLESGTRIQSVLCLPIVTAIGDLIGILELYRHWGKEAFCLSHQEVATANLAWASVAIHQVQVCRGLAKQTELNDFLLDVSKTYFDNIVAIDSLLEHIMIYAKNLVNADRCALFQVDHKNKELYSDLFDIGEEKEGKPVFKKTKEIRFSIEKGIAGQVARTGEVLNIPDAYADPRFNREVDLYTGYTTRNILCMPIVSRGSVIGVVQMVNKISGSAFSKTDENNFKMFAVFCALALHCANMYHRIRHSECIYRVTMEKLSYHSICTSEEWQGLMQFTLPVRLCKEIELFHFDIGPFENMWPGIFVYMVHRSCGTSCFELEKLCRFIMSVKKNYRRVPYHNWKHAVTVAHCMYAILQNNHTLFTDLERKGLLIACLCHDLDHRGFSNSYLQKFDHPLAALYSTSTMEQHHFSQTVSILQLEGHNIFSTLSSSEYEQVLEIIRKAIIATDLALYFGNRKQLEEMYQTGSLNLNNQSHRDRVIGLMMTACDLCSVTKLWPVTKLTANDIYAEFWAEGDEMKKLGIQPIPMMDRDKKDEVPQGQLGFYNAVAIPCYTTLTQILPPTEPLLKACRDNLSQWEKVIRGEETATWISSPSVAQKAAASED
# [4] = Displacement of [3H]cAMP from PDE6 by competitive binding assay
# Rattus norvegicus [5] = test: Antipsychotic activity in rat schizophrenia model assessed as inhibition of MK801-induced hyperactivity at 3 mg/kg, po; assay type: functional
# Rattus norvegicus [6] = test: Antipsychotic activity in rat schizophrenia model assessed as inhibition of MK801-induced hyperactivity at 10 mg/kg, po; assay type: functional
# Rattus norvegicus [7] = test: Antipsychotic activity in orally dosed rat schizophrenia model assessed as inhibition of MK801-induced hyperactivity; assay type: functional; conditions: po, read-out: MED
# [8] = molecular target: High affinity cGMP-specific 3',5'-cyclic phosphodiesterase 9A (Homo sapiens, UniProt O76083); test: Displacement of [3H]cAMP from PDE9A1 by competitive binding assay
# Chain of High affinity cGMP-specific 3',5'-cyclic phosphodiesterase 9A (O76083 whole entry): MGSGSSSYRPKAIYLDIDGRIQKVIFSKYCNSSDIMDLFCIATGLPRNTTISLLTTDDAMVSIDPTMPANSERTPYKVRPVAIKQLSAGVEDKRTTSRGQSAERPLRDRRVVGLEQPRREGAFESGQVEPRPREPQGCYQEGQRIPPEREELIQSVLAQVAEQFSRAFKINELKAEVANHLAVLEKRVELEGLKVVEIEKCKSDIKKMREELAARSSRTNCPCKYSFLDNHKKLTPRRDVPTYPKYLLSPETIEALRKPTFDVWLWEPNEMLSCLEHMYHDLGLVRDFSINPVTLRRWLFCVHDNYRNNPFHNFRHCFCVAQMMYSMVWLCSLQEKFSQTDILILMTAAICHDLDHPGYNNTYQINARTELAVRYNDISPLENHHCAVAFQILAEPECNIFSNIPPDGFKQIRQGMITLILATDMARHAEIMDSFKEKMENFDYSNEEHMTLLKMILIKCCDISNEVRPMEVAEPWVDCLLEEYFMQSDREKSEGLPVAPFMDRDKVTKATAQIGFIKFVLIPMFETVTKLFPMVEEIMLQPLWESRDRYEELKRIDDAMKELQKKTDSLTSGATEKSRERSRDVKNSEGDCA
# [9] = molecular target: Dual specificity calcium/calmodulin-dependent 3',5'-cyclic nucleotide phosphodiesterase 1A (Homo sapiens, UniProt P54750); test: Displacement of [3H]cAMP from PDE1A3 by competitive binding assay
# Chain of Dual specificity calcium/calmodulin-dependent 3',5'-cyclic nucleotide phosphodiesterase 1A (P54750 whole entry): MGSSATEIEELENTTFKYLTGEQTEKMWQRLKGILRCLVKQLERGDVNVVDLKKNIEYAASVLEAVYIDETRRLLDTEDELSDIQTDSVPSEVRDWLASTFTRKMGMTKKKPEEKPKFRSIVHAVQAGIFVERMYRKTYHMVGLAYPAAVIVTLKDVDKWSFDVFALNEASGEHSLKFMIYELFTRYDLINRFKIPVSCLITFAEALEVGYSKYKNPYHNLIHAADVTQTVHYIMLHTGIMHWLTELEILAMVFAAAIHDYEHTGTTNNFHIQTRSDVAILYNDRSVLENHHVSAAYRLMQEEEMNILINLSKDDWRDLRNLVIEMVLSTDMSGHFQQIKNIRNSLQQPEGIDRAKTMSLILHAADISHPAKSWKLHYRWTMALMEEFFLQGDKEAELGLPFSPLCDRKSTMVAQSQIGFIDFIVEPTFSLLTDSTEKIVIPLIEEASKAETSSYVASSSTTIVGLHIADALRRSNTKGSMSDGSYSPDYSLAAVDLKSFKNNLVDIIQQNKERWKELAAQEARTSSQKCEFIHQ
# [10] = molecular target: High affinity 3',5'-cyclic-AMP phosphodiesterase 7A (Homo sapiens, UniProt Q13946); test: Displacement of [3H]cAMP from PDE7A1 by competitive binding assay
# Chain of High affinity 3',5'-cyclic-AMP phosphodiesterase 7A (Q13946 whole entry): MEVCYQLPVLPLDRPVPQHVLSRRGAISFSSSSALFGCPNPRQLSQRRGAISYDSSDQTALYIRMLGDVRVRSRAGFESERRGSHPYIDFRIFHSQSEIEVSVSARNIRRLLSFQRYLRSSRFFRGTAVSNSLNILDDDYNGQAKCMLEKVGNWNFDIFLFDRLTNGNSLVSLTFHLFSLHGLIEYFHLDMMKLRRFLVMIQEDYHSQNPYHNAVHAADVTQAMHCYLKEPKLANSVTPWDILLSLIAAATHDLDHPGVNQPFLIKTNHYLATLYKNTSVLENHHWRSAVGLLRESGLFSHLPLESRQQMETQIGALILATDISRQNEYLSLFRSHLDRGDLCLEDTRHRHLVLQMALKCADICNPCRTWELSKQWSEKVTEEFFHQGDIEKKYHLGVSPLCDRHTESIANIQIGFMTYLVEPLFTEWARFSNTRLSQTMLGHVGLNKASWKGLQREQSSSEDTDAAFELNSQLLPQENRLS
# [11] = molecular target: 3',5'-cyclic-AMP phosphodiesterase 4B (Homo sapiens, UniProt Q07343); test: Displacement of [3H]cAMP from PDE4B2 by competitive binding assay
# [12] = molecular target: cGMP-inhibited 3',5'-cyclic phosphodiesterase 3A (Homo sapiens, UniProt Q14432); test: Displacement of [3H]cAMP from PDE3A by competitive binding assay
# [13] = molecular target: cGMP-dependent 3',5'-cyclic phosphodiesterase (Homo sapiens, UniProt O00408); test: Displacement of [3H]cAMP from PDE2A by competitive binding assay
# [14] = molecular target: High affinity cAMP-specific and IBMX-insensitive 3',5'-cyclic phosphodiesterase 8A (Homo sapiens, UniProt O60658); test: Displacement of [3H]cAMP from PDE8A1 by competitive binding assay
# Chain of High affinity cAMP-specific and IBMX-insensitive 3',5'-cyclic phosphodiesterase 8A (O60658 whole entry): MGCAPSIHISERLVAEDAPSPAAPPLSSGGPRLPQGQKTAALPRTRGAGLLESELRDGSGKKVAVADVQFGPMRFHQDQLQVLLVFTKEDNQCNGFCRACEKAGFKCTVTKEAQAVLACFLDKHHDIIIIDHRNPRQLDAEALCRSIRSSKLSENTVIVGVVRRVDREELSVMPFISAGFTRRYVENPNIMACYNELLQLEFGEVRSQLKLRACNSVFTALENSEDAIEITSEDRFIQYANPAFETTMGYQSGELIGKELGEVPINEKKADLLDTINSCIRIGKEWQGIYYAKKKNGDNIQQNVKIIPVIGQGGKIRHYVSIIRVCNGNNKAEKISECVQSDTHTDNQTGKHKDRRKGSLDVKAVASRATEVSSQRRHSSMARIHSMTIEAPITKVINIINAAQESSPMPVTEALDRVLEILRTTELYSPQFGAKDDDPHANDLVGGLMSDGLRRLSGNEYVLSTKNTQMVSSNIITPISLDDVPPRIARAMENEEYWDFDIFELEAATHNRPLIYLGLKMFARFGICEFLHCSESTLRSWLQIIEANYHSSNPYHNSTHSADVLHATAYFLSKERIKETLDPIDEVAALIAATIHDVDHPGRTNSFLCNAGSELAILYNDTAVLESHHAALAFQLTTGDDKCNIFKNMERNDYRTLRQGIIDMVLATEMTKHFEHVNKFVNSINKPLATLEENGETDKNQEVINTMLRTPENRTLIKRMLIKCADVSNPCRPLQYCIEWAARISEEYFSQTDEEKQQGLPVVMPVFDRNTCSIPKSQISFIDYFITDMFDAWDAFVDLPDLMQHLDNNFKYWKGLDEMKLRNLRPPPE
# Rattus norvegicus [15] = test: Toxicity in orally dosed rat schizophrenia model assessed as induction of hypolocomotion; assay type: organism-based; conditions: in vivo, po
# [16] = Clearance in human hepatocytes assessed per million cells; assay type: ADME, cell-based, Hepatocyte; conditions: read-out: CLH
# Cytochrome P450 2D6 = Cytochrome P450 2D6 (Homo sapiens, UniProt P10635); test: Inhibition of CYP2D6 up to 20 uM; assay type: ADME
# Chain of Cytochrome P450 2D6 (P10635 whole entry): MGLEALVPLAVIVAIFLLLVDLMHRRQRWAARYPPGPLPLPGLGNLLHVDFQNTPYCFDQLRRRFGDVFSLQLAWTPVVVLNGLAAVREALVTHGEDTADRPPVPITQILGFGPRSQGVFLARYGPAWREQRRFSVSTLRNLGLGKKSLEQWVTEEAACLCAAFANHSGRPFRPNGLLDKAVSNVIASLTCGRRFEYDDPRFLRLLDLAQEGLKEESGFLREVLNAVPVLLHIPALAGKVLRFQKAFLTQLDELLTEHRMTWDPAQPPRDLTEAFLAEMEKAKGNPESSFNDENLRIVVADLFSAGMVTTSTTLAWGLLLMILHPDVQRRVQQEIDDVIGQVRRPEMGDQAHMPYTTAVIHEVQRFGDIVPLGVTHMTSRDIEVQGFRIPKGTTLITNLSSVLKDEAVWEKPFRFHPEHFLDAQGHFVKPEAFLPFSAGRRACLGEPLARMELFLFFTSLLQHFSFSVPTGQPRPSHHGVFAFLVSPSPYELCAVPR
# [17] = Drug level in rat brain after 6 hrs; assay type: ADME, organism-based; conditions: read-out: Ct
# [18] = Protein binding in rat; assay type: ADME, organism-based; conditions: plasma, read-out: PB (converted)
# Rattus norvegicus [19] = species on record: Rattus norvegicus; test: Ratio of drug level in brain to plasma in rat after 6 hrs; assay type: ADME, organism-based
# [20] = Clearance in monkey hepatocytes assessed per million cells; assay type: ADME, cell-based, Macaca mulatta, Hepatocyte; conditions: rhesus monkey, read-out: CLH
# Cytochrome P450 3A4 = Cytochrome P450 3A4 (Homo sapiens, UniProt P08684); test: Inhibition of CYP3A4 up to 20 uM; assay type: ADME
# Chain of Cytochrome P450 3A4 (P08684 whole entry): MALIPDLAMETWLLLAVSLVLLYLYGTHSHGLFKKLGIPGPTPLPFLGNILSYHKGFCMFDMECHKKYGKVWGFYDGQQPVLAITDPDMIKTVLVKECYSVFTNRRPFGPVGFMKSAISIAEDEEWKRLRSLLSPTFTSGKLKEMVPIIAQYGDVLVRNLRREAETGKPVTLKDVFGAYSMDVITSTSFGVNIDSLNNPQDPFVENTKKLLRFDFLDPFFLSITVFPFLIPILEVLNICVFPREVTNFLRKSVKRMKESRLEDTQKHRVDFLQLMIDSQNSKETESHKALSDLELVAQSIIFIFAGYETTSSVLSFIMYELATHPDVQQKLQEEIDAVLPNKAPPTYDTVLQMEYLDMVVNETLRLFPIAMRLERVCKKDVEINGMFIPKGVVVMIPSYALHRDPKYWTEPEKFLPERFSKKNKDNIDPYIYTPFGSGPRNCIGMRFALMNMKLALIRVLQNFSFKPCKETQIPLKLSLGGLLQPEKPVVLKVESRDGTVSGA
# [21] = Clearance in rat hepatocytes assessed per million cells; assay type: ADME, cell-based, Hepatocyte; conditions: read-out: CLH
# hERG (KCNH2) = hERG (KCNH2) (Homo sapiens, UniProt Q12809); test: Inhibition of human ERG at 10 uM
# Cytochrome P450 2C9 = Cytochrome P450 2C9 (Homo sapiens, UniProt P11712); test: Inhibition of CYP2C9 up to 20 uM; assay type: ADME
# Chain of Cytochrome P450 2C9 (P11712 whole entry): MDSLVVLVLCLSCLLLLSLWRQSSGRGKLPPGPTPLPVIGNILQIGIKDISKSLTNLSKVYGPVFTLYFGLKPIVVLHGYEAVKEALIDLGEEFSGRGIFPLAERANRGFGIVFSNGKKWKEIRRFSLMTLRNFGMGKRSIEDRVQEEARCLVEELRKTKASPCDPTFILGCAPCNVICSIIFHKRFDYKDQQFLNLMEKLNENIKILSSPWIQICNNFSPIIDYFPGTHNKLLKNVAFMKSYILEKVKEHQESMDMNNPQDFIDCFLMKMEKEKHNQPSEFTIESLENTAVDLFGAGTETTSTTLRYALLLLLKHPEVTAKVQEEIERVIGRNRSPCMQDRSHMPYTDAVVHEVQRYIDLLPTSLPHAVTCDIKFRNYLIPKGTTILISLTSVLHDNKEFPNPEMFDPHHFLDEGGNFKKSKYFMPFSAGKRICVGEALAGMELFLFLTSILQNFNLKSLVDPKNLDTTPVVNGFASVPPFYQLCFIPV
structure (smiles),measurement,setting,value
COc1cc(C)c2nc3[nH]nc(C)c3c(CN3CC[C@@H](O)C3)c2c1,Activity,Rattus norvegicus [1],102%
same,Ki,[2],6400 nM
same,Ki,[3],3 nM
same,Ki,[4],4700 nM
same,Activity,Rattus norvegicus [5],inactive
same,Activity,Rattus norvegicus [6],inactive
COc1cc(C)c2nc3[nH]nc(C)c3c(CN3CCCC3)c2c1,Activity,Rattus norvegicus [1],122%
same,Ki,[3],24 nM
same,Activity,Rattus norvegicus [5],96%
same,minimal effective dose,Rattus norvegicus [7],1 mg/kg
same,Activity,Rattus norvegicus [6],107%
COc1cc(C)c2nc3[nH]nc(C)c3c(CN3CCOCC3)c2c1,Activity,Rattus norvegicus [1],109%
same,Ki,[2],10600 nM
same,Ki,[4],2000 nM
same,Activity,Rattus norvegicus [5],inactive
same,Activity,Rattus norvegicus [6],131%
COc1ccc2nc3[nH]nc(C)c3c(CN3CCCOCC3)c2c1,Ki,[3],153 nM
Cc1cc(Cl)cc2c(CN3C4CCC3CC4)c3c(C)n[nH]c3nc12,Ki,[3],229 nM
COCCOc1cc(C)c2nc3[nH]nc(C)c3c(CN3CCCOCC3)c2c1,Ki,[8],> 10000 nM
same,Ki,[2],24400 nM
same,Ki,[9],> 10000 nM
same,Ki,[3],1 nM
same,Ki,[4],5900 nM
same,Ki,[10],> 10000 nM
same,Ki,[11],> 10000 nM
same,Ki,[12],> 10000 nM
same,Ki,[13],> 10000 nM
same,Ki,[14],> 10000 nM
COc1cc(C)c2nc3[nH]nc(C)c3c(CN3[C@@H]4CC[C@H]3C[C@@H](O)C4)c2c1,Ki,[3],265 nM
Cc1cc(O)cc2c(CN3CCCOCC3)c3c(C)n[nH]c3nc12,Ki,[2],20800 nM
same,Ki,[3],2 nM
same,Ki,[4],2400 nM
COc1cc(C)c2nc3[nH]nc(C)c3c(CN3CCC(O)CC3)c2c1,Activity,Rattus norvegicus [1],136%
same,Ki,[3],57 nM
same,Activity,Rattus norvegicus [5],inactive
same,Activity,Rattus norvegicus [6],inactive
COc1cc(OC)c2nc3[nH]nc(C)c3c(CN3CCCOCC3)c2c1,Ki,[3],14 nM
Cc1n[nH]c2nc3ccc(C(F)(F)F)cc3c(CN3CCCOCC3)c12,Ki,[3],104 nM
COc1cc(C)c2nc3[nH]nc(C)c3c(CN3CCOC(CO)C3)c2c1 (stereo not drawn),Activity,Rattus norvegicus [1],104%
same,Ki,[2],5000 nM
same,Ki,[3],0.6 nM
same,Ki,[4],300 nM
same,Activity,Rattus norvegicus [5],inactive
same,Activity,Rattus norvegicus [6],inactive
COc1cc(C)c2nc3[nH]nc(C)c3c(CN3C4CCC3CC4)c2c1,Ki,[3],1200 nM
COc1cc(C)c2nc3[nH]nc(C)c3c(CN3CCCOCC3)c2c1,Activity,Rattus norvegicus [1],103%
same,Ki,[2],9700 nM
same,MED,Rattus norvegicus [15],30 mg/kg
same,hepatocyte CLint,[16],8.3 µL/min/1e6 cells
same,inhibition (INH),Cytochrome P450 2D6,Not Active
same,concentration at 6 h,[17],42 ng/g
same,Ki,[4],2100 nM
same,Activity,Rattus norvegicus [5],66%
same,fraction unbound,[18],0.03
same,BPR,Rattus norvegicus [19],1.56
same,minimal effective dose,Rattus norvegicus [7],3 mg/kg
same,hepatocyte CLint,[20],6 µL/min/1e6 cells
same,inhibition (INH),Cytochrome P450 3A4,Not Active
same,hepatocyte CLint,[21],< 1 µL/min/1e6 cells
same,inhibition at 10 µM,hERG (KCNH2),5.3%
same,Activity,Rattus norvegicus [6],120%
same,inhibition (INH),Cytochrome P450 2C9,Not Active
COc1cc(C)c2nc3[nH]nc(C)c3c(CN3CCNC(=O)C3)c2c1,Activity,Rattus norvegicus [1],inactive
same,Ki,[3],9 nM
COc1cc(C)c2nc3[nH]nc(C)c3c(CN3CCC(CO)C3)c2c1 (stereo not drawn),Activity,Rattus norvegicus [1],38%
same,Ki,[3],32 nM
same,Activity,Rattus norvegicus [5],inactive
same,Activity,Rattus norvegicus [6],inactive
COc1cc(C)c2nc3[nH]nc(C)c3c(CN3CC4CC3CO4)c2c1 (stereo not drawn),Ki,[3],46 nM
COc1cc(C)c2nc3[nH]nc(C)c3c(CN3CCCC(C(F)(F)F)C3)c2c1 (stereo not drawn),Ki,[3],353 nM
COc1cc(C)c2nc3[nH]nc(C)c3c(CN3C[C@@H](C)O[C@@H](C)C3)c2c1,Ki,[3],26 nM
Cc1n[nH]c2nc3c(OC(F)(F)F)cc(Br)cc3c(CN3CCCOCC3)c12,Ki,[3],37 nM
COc1cc(C)c2nc3[nH]nc(C)c3c(CN3CCOC(C)C3)c2c1 (stereo not drawn),Activity,Rattus norvegicus [1],130%
same,Ki,[2],8900 nM
same,Ki,[3],3 nM
same,Ki,[4],8300 nM
same,Activity,Rattus norvegicus [5],inactive
same,Activity,Rattus norvegicus [6],88%
Cc1cc(OC(F)(F)F)cc2c(CN3CCCOCC3)c3c(C)n[nH]c3nc12,Ki,[3],19 nM
COc1cc(C)c2nc3[nH]nc(C)c3c(CN3CCC(C(F)(F)F)CC3)c2c1,Ki,[3],871 nM
COc1cc(C)c2nc3[nH]nc(C)c3c(CN3CCOC(C)(C)C3)c2c1,Ki,[3],171 nM
COc1cc(C)c2nc3[nH]nc(C)c3c(CN3CCN[C@H](C)C3)c2c1,Activity,Rattus norvegicus [1],inactive
same,Ki,[3],30 nM
Cc1cc(Cl)cc2c(CN3CC4CC3CO4)c3c(C)n[nH]c3nc12 (stereo not drawn),Ki,[3],60 nM
COc1cc(C)c2nc3[nH]nc(C)c3c(CN3CCC(F)CC3)c2c1,Ki,[3],202 nM
COc1cc(C)c2nc3[nH]nc(C)c3c(CN3CCCCC3)c2c1,Ki,[3],804 nM
Cc1cc(Cl)cc2c(CN3CCCOCC3)c3c(C)n[nH]c3nc12,Activity,Rattus norvegicus [1],87%
same,Ki,[3],41 nM
same,Activity,Rattus norvegicus [5],inactive
same,Activity,Rattus norvegicus [6],inactive
Cc1cc(OC(C)C)cc2c(CN3CCCOCC3)c3c(C)n[nH]c3nc12,Ki,[3],8 nM
COc1cc(C)c2nc3[nH]nc(C)c3c(CN3CCNCC3)c2c1,Activity,Rattus norvegicus [1],inactive
same,Ki,[3],49 nM
